Converted amounts (≈) assume the structure as drawn.
Legend:
Micrococcus luteus = experiment: Antimicrobial activity against Micrococcus luteus DSM 348; format: functional
Artemia salina = experiment: Toxicity against Artemia salina; format: organism-based; details: in vivo
Bacillus subtilis = experiment: Antimicrobial activity against Bacillus subtilis DSM 347; format: functional

## C=C1CCC[C@H]2[C@](C)(CCC3=CCC(C4=CC(=O)OC4O)OC3)[C@H](C)CC[C@]12C (stereo partly drawn) [CACOSPONGIONOLIDE B]
Micrococcus luteus
  MIC: 0.78 µg/mL (≈ 1.95 µM)
Artemia salina
  LC50: 0.25 ppm
Bacillus subtilis
  MIC: 0.78 µg/mL (≈ 1.95 µM)

From ChEMBL document CHEMBL1150094, “Cacospongionolide B, a new sesterterpene from the sponge Fasciospongia cavernosa” (J Nat Prod, 1995)
